The record followed here is patent US10752587B2, “Homobispiperidinyl derivatives as liver X receptor beta agonists, compositions and their use” (Merck Sharp & Dohme Corp., priority 2015, dated 2020).

The target of test [1] is T1, glutathione-S-transferase (GST) tagged LXRalpha LBD (ligand binding domain) (Homo sapiens, UniProt Q13133).
T1 construct: purchased Invitrogen pv4655
T1 sequence (Q13133 209-447 limits assumed): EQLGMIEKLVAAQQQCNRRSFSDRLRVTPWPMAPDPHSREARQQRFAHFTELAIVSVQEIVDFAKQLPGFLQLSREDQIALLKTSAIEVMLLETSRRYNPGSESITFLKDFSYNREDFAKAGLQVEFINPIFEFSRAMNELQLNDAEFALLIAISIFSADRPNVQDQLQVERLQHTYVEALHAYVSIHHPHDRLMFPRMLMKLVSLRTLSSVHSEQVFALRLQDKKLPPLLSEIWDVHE
In words: LanthaScreen TR-FRET Liver X Receptor Coactivator Assay, co-activator recruitment to LXRalpha LBD. Format: biochemical. The conditions noted are these: for Emax: efficacy at max dose, in relation to reference dual agonist T0901317, read-out: LXR alpha Activity @ max dose (%); for EC50 / LXR alpha IP (nM): potency (Inflection Point, IP), co-activator recruitment to LXRalpha LBD, in relation to T0901317; for EC50: read-out: LXR alpha IP. The essentials:
(§1)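 TR-FRET coactivator recruitment; compound + LBD, then fluorescein-coactivator peptide/Tb-anti-GST Ab mix; RT incubation; IP and Emax vs T0901317.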
On the technique in general: Time-resolved FRET reads energy transfer from a long-lived donor to a nearby acceptor.

The target of test [2] is T2, glutathione-S-transferase (GST) tagged LXRbeta LBD (ligand binding domain) (Homo sapiens, UniProt P55055).
T2 construct: purchased Invitrogen pv4658.pps
T2 sequence (P55055 222-460 limits assumed): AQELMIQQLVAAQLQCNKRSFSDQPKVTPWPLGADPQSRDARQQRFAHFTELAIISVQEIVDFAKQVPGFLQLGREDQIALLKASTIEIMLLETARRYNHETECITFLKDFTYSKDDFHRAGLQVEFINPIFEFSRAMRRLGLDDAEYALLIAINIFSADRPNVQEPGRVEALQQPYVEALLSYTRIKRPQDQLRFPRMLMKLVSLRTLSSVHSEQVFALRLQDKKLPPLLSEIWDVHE
In words: LanthaScreen TR-FRET Liver X Receptor Coactivator Assay, co-activator recruitment to LXRbeta LBD. Type of test: biochemical. The conditions noted are these: for Emax: efficacy at max dose, in relation to reference dual agonist T0901317, read-out: LXR beta Activity @ max dose (%); for EC50: potency (Inflection Point, IP), co-activator recruitment to LXRbeta LBD, in relation to T0901317, read-out: LXR beta IP. The essentials:
as §1

As to `CNC(=O)c1ccc(N2CCC(CC3CCN(C(=O)[C@](O)(c4cccc(OC(F)(F)F)c4)C(F)(F)F)CC3)CC2)nc1Cl` [Example 7-139, 2-chloro-N-methyl-6-{4-[(1-{(2R)-3,3,3-trifluoro-2-hydroxy-2-[3-(trifluoromethoxy)phenyl]propanoyl}piperidin-4-yl)methyl]piperidin-1-yl}pyridine-3-carboxamide], in test [1], the Emax worked out at 26% and the EC50 is 0.223 µM. Also, in test [2], the Emax turned out to be 91% and the EC50 amounted to 0.026 µM.

In the case of `COc1cc(Cl)cc([C@@](O)(C(=O)N2CCC(CC3CCN(c4ccc(C(=O)N(C)C)c(Cl)c4)CC3)CC2)C(F)(F)F)c1` [Example 2-100, 2-chloro-4-[4-({1-[(2R)-2-(3-chloro-5-methoxy-phenyl)-3,3,3-trifluoro-2-hydroxy-propanoyl]piperidin-4-yl}methyl)piperidin-1-yl]-N,N-dimethyl-benzamide], in test [1], the Emax was 0% and the “LXR alpha IP (nM)” value is given as “NO IP”. In addition, in test [2], the Emax is 24% and the EC50 was determined as 0.006 µM.

For `COc1cc(Cl)cc([C@@](O)(C(=O)N2CCC(CC3CCN(c4ccc(C(=O)N(C)C)c(Cl)n4)CC3)CC2)C(F)(F)F)c1` [Example 7-107, 2-chloro-6-[4-({1-[(2R)-2-(3-chloro-5-methoxyphenyl)-3,3,3-trifluoro-2-hydroxypropanoyl]piperidin-4-yl}methyl)piperidin-1-yl]-N,N-dimethylpyridine-3-carboxamide], in test [1], the Emax stood at 0% and the “LXR alpha IP (nM)” value is “NO IP”. Moreover, in test [2], the Emax came out at 26% and the EC50 is 0.003 µM.

For `CN(C)C(=O)c1ccc(N2CCC(CC3CCN(C(=O)[C@](O)(c4cc(Cl)cc(Cl)c4)C(F)(F)F)CC3)CC2)cc1` [Example 2-133, 4-[4-({1-[(2R)-2-(3,5-dichloro-phenyl)-3,3,3-trifluoro-2-hydroxy-propanoyl]piperidin-4-yl}methyl)piperidin-1-yl]-N,N-dimethyl-benzamide], in test [1], the Emax worked out at 6% and the “LXR alpha IP (nM)” value is given as “NO IP”. In addition, in test [2], the Emax came out at 54% and the EC50 came out at 0.036 µM.

`Cc1cccc([C@@](O)(C(=O)N2CCC(CC3CCN(c4ccc(C(=O)N(C)C)cc4)CC3)CC2)C(F)(F)F)c1` [Example 2-129, N,N-dimethyl-4-[4-({1-[(2R)-3,3,3-trifluoro-2-hydroxy-2-(3-methylphenyl)propanoyl]piperidin-4-yl}methyl)piperidin-1-yl]benzamide]: in test [1], the Emax is 5% and the “LXR alpha IP (nM)” value was “NO IP”. Also, in test [2], the Emax is 51% and the EC50 worked out at 0.051 µM.

Consider `CNC(=O)c1ccc(N2CCC(CC3CCN(C(=O)[C@](O)(c4cccc(C(F)(F)F)c4)C(F)(F)F)CC3)CC2)cc1Cl` [Example 7-128, 2-chloro-N-methyl-4-{4-[(1-{(2R)-3,3,3-trifluoro-2-hydroxy-2-[3-(trifluoromethyl)phenyl]propanoyl}piperidin-4-yl)methyl]piperidin-1-yl}benzamide], for which, in test [1], the Emax turned out to be 30% and the EC50 was 1.18 µM. In addition, in test [2], the Emax worked out at 78% and the EC50 is 0.051 µM.

As for `O=C(c1ccc(N2CCC(CC3CCN(C(=O)[C@](O)(c4ccccc4)C(F)(F)F)CC3)CC2)cc1Cl)N1CC[C@H](F)C1` [Example 4-18], the Emax stood at 39% in test [1] and 67% in test [2]. Besides, the EC50 in test [1] was 0.485 µM; in test [2] it was 0.059 µM.

Regarding `CC(C)c1cccc([C@@](O)(C(=O)N2CCC(C)(CC3CCN(c4ccc(C(=O)N(C)C)c(Cl)c4)CC3)CC2)C(F)(F)F)c1` [Example 2-56, 2-chloro-N,N-dimethyl-4-{4-[(4-methyl-1-{(2R)-3,3,3-trifluoro-2-hydroxy-2-[3-(1-methylethyl)phenyl]propanoyl}piperidin-4-yl)methyl]piperidin-1-yl}benzamide], in test [1], the Emax was found to be 2% and the “LXR alpha IP (nM)” value is recorded as “NO IP”. Also, in test [2], the Emax came to 37% and the EC50 is 0.018 µM.
